This is an account of results in patent publication US9809640B2, “ApoE peptide dimers and uses thereof” (priority 2010, dated 2017).

The nature of series [1]: Pharmacokinetics of subcutaneously injected COG1410. The conditions noted are these: plasma, sc. The protocol: Male C57Bl/6 mice (20-24 g, Charles River, Raleigh, N.C.) are injected with a peptide dimer subcutaneously at a volume of 5 mL/kg in the scruff of the neck. Ten minutes before the desired timepoint, mice are anesthetized and at the desired timepoint blood is drawn by cardiac puncture. Blood from at least 4 mice is used for each timepoint with the samples collected at 5, 10, 15, 30, 45, 60, 90, 120, 180 and 240 minutes for the initial analysis. The samples are processed and the pharmacokinetic analysis is completed. […] In the event that the half life has not been reached, a repeat of the experiment is performed that uses one timepoint before the observed Tmax, a timepoint at the observed Tmax and timepoints extending long enough to adequately determine the half life based on extrapolation of the previous observations of clearance from the plasma. Analysis of three concentrations of the peptide dimer is also performed to determine if there is a dose dependent effect on the pharmacokinetic parameters.

In series [2] the test system is B-CLL cells. The experiment in a line: Cytotoxicity on patient-derived B-CLL cells (MTS assay). From the text:
FIG. 5A: Dose response curves for COG449 cytotoxicity on CLL cells from 4 leukemia patients. Human CLL cells were isolated from blood samples and assayed for COG449 cytotoxicity. […] FIG. 5B: Dose response curves for COG445 on CLL cells from 7 patients or normal B-cells from 5 patients. Human CLL cells and PBMC were isolated and assayed for cytotoxicity of COG445.
Blood from CLL patients was collected and CD5+/CD19+ CLL cells were isolated using the RosetteSep™ Human B-Cell Enrichment Cocktail, according to the manufacturer's instructions, and treated with COG compounds. Compounds were applied to B-CLL cells (2.5×10^5 cells/well in a 96 well plate), after which the cells were treated for 72 hours.
Normal B-cells from volunteers and B-CLL cells from patients are isolated using the RosetteSep™ Human B Cell Enrichment Cocktail according to the manufacturer's instructions. This method depletes whole blood of T cells, monocytes, and NK cells using a proprietary antibody cocktail that cross-links unwanted cells in human whole blood to multiple red blood cells (RBCs) forming immunorosettes. This increases the density of the unwanted (rosetted) cells, such that they pellet along with the free RBCs when centrifuged over a buoyant density medium such as Ficoll-Paque®. This leaves the highly enriched B-cell or B-CLL cells at the interface between Ficoll and the plasma. The antibodies in the cocktail contain […] and anti-CD16 antibodies to remove T cells, monocytes, and NK cells, respectively. The purity of these B-cell and B-CLL preparations is then determined by flow cytometry.
For cytotoxicity assays, 3×10^6 CLL cells/well are cultured in 24 well tissue culture plates in 1.5 mL of Hybridoma SFM™ (Gibco, Long Island, N.Y.) as described by Levesque et al. (2001, 2003). All cultures are incubated at 37° C., 5% CO2 in air.
Background: Tetrazolium dyes change colour on reduction, which living cells bring about.

In series [3] the test system is normal B-cells. The experiment in a line: Cytotoxicity on normal B-cells from volunteers. Format: cell-based, human. The following applies: normal B-cells from volunteers.
Description: Normal B-cells from volunteers and B-CLL cells from patients are isolated using the RosetteSep™ Human B Cell Enrichment Cocktail according to the manufacturer's instructions. This method depletes whole blood of T cells, monocytes, and NK cells using a proprietary antibody cocktail that cross-links unwanted cells in human whole blood to multiple red blood cells (RBCs) forming immunorosettes. This increases the density of the unwanted (rosetted) cells, such that they pellet along with the free RBCs when centrifuged over a buoyant density medium such as Ficoll-Paque®. This leaves the highly enriched B-cell or B-CLL cells at the interface between Ficoll and the plasma. The antibodies in the cocktail contain anti-CD14, anti-CD2 and anti-CD16 antibodies to remove T cells, monocytes, and NK cells, respectively. The purity of these B-cell and B-CLL preparations is then determined by flow cytometry. Preparations typically average less than 2% CD3+ T-cells and less than 0.5% CD14+ monocytes. In the case of B-CLL cell isolation, we routinely obtain preparations that contain less than 1.5% normal CD19+/CD5− B-cells using this method.
Series [4] is described as follows: Mouse toxicity, maximum tolerated dose by intravenous injection. The following applies: in vivo, maximum dose by intravenous injection without deaths after 24 hrs. The source says:
(§1) We also evaluated the various peptides for efficacy in suppressing nitric oxide production induced by LPS stimulation of BV2 microglia cells as a measure of anti-inflammatory activity as well as the maximum dose tolerated in mice (Table I and FIG. 6A). For the LPS assay, EC50 is the concentration of compound that caused a 50% suppression of nitric oxide release from BV2 cells following LPS stimulation. For mouse toxicity, MTD is the maximum dose of the compound that can be given by intravenous injection without causing deaths after 24 hrs. […] Coupling the ApoE domain to a protein transduction domain further enhanced the potency of the dimers.

Series [5] relates to BV2 microglia cells. The experiment in a line: LPS-induced nitric oxide production in BV2 microglia cells. It is filed as cell-based. The conditions noted are these: 50% suppression of nitric oxide release from BV2 cells following LPS stimulation. As for the experimental part:
FIG. 1. COG 112 inhibits LPS-induced production of inflammatory cytokines in BV2 microglia cells. Inhibition curves for COG112 in the production of NO (green squares), TNFα (red diamonds), and IL-6 (blue triangles) by BV2 microglia. Compounds were added to the final concentrations indicated on the graph along with 100 ng/mL of LPS. After 24 hours the media was removed and assayed by two-site ELISA (BioSource) and quantitated relative to a standard curve on the same plate.
FIG. 3. NO Inhibition curve for COG449. BV2 microglia were treated with COG449 at the final concentrations indicated on the graph, along with 100 ng/mL of LPS. After 24 hours the media was removed and assayed by two-site ELISA (BioSource) and quantitated relative to a standard curve on the same plate.
as §1
Low passage BV2 microglial cell cultures are maintained in 10% HI (Heat Inactivated) FBS DMEM media (supplemented with MEM NEAA (Non-Essential Amino Acids), sodium pyruvate and Pen-Strep) and continuously cultured until needed. To determine the IC50 values for NO production, peptides are added to BV2 cultures in 1% HI FBS DMEM media (supplemented with MEM NEAA and sodium pyruvate) at a range of final assay concentrations from 1.0 μM in 2 fold dilutions to 7.8 nM followed immediately by addition of LPS (100 ng/mL final concentration) as previously described (Laskowitz et al. (2001) Exp Neurol, Vol. 167(1): 74-85). After incubating for 18±1 hours, conditioned media is removed for analysis of nitrite (the stable oxidation product of released nitric oxide) by the Griess colorimetric assay (Promega). Remaining cells are assayed for viability in an MTT assay (Promega) and the nitrite assay values are normalized for each concentration using the percent viability of cells in the MTT assay. […] Typically, the absence of LPS exposure to BV2 cells results in levels below the limit of detection in our assays. Similarly, addition of any of the peptides up to 25 μM without LPS results in undetectable NO levels.

Series [6] deals with BV2 microglia cells. The following applies: previously shown; cited from earlier work.
Series [7] concerns U87MG glioblastoma cells. Format: cell-based. The conditions noted are these: MTT. As for the experimental part: (§2) FIG. 14A: Dose response curve of COG445 on proliferation of U87 (open circles) and MDA-MB-231 (filled circles) cells as measured by MTT reduction. FIG. 14B: Dose response curve of COG445 on proliferation of MDA-MB-231 cells as measured by cell count.
To determine whether ApoE peptide dimers were cytotoxic to other types of cancer, we evaluated the effect of three different ApoE BMOE-linked peptide dimers (COG449, COG492, COG493; see Table I) on the growth characteristics of U87MG glioblastoma cells. Various concentrations of COG449, COG492, COG493 or Sorafenib were used to treat U87MG glioblastoma cells and viable cells were quanititated using MTT. Sorafenib, which has previously been reported to be cytotoxic to glioblastoma cells (Yang et al. (2010) Mol Cancer Ther., Vol. 9(4):953-962), was used as a positive control.
(§3) Because COG445 inhibited Akt activation and downstream signaling, we examined the effects of COG445 on cellular proliferation. Adherent MB231 and U87 cells were grown for ˜24 hours in the presence of COG445 and cellular proliferation was measured by MTT reduction. […] Furthermore, COG445 inhibited MB231 cellular proliferation as determined by cell count (FIG. 14B). Approximately 6×10^4 cells were plated in growth media (RPMI+10% FBS) for 24-hours with increasing concentrations of COG445. […] However at concentrations ≧1 μM COG445, there appears to be a loss of cells. This is partially explained by decreased proliferation, although it is possible that the rate of cellular degradation was increased in the presence of COG445.

Series [8] deals with MDA-MB-231 breast cancer cells. Format: cell-based. The following applies: 48 hours, MTT. As for the experimental part: as §2
Next, we examined the potency of an ApoE peptide dimer versus the monomeric form on proliferation of the MDA-MB-231 breast cancer cell line. MDA-MB-231 cells were treated with various concentrations of either COG435 (monomer; SEQ ID NO: 90) or COG493 (a BMOE-linked dimer of COG 435) peptides for 48 hours. Following peptide treatment, cells were quantified using a MTT assay.
as §3

Where two headings read alike, the source gives them in different places. Non-standard residues stand in square brackets, D forms with d. Residues, ends and D or L forms follow the SMILES beside them. No end group written: not given here. Arg(NO2) = N=C(NCCC[C@H](N)C(=O)O)N[N+](=O)[O-]; Aib = CC(C)(N)C(=O)O

By Tmax is commonly meant the time at which the peak concentration occurs. For orientation: half-life means how long it takes for the measured level to halve. A lower half-life goes with rapid decline. As a reminder, the EC50 is the concentration at which the effect is half-maximal. One may read the MTD as the largest dose that counted as tolerated. A high value points to a wide tolerated range. As to `CC(=O)N[C@@H](C)C(=O)N[C@@H](CO)C(=O)NC(C)(C)C(=O)N[C@@H](CC(C)C)C(=O)N[C@@H](CCCNC(=N)N)C(=O)N[C@@H](CCCCN)C(=O)N[C@@H](CC(C)C)C(=O)NC(C)(C)C(=O)N[C@@H](CCCCN)C(=O)N[C@@H](CCCNC(=N)N)C(=O)N[C@@H](CC(C)C)C(=O)N[C@@H](CC(C)C)C(N)=O` [COG1410, AS(Aib)LRKL(Aib)KRLL (SEQ ID NO: 5)] (Ac-AS[Aib]LRKL[Aib]KRLL-NH2; N-terminus and C-terminus assumed), in series [1], the Tmax lay within 20 to 30 min and the half-life was 60 to 90 min. Further, the EC50 in series [2] (read-out: EC50 anti-CLL cytotoxic activity, B-CLL cells) came to 5700 nM. In series [3], the EC50 is above 20000 nM. In series [4], this compound gave an MTD at 24 h of 15 mg/kg.

Consider `CC(=O)N[C@@H](CC(C)C)C(=O)N[C@@H](CCCNC(=N)N)C(=O)N[C@H](C(=O)N[C@@H](CCCNC(=N)N)C(=O)N[C@@H](CC(C)C)C(=O)N[C@@H](C)C(=O)N[C@@H](CO)C(=O)NC(C)(C)C(=O)N[C@@H](CC(C)C)C(=O)N[C@@H](CCCCN)C(=O)N[C@@H](CCCNC(=N)N)C(=O)N[C@@H](CC(C)C)C(=O)N[C@@H](CCCNC(=N)N)C(=O)N[C@@H](CCCCN)C(=O)N[C@@H](CCCNC(=N)N[N+](=O)[O-])C(=O)N[C@@H](CC(C)C)C(=O)N[C@@H](CC(C)C)C(N)=O)C(C)C` [COG248, LRVRLAS(Aib)LKRLRK(nitroR)LL (SEQ ID NO: 4)] (Ac-LRVRLAS[Aib]LKRLRK[Arg(NO2)]LL-NH2), for which the EC50 amounted to 900 nM in series [5] and 2300 nM in series [2] (read-out: CLL EC50, B-CLL cells from patients, 72 hours, MTS assay). For the same compound, the “Fold Change” value in series [2] (CLL EC50 relative to COG056 (rev133) = 1.0) was determined as 5.5. Also, the “anti-inflammatory activity relative to COG133 in NO release assays” value in series [6] is listed as “improved anti-inflammatory activity”.

`CC(=O)N[C@@H](Cc1c[nH]c2ccccc12)C(=O)N[C@@H](CCCCN)C(=O)N[C@@H](CCCCN)C(=O)N[C@@H](CSC1CC(=O)N(CCN2C(=O)CC(SC[C@H](NC(=O)[C@H](CCCCN)NC(=O)[C@H](CCCCN)NC(=O)[C@H](Cc3c[nH]c4ccccc34)NC(C)=O)C(=O)N[C@@H](CC(C)C)C(=O)N[C@@H](CCCNC(=N)N)C(=O)N[C@H](C(=O)N[C@@H](CCCNC(=N)N)C(=O)N[C@@H](CC(C)C)C(=O)N[C@@H](C)C(=O)N[C@@H](CO)C(=O)N[C@@H](Cc3c[nH]cn3)C(=O)N[C@@H](CC(C)C)C(=O)N[C@@H](CCCNC(=N)N)C(=O)N[C@@H](CCCCN)C(=O)N[C@@H](CC(C)C)C(=O)N[C@@H](CCCNC(=N)N)C(=O)N[C@@H](CCCCN)C(=O)N[C@@H](CCCNC(=N)N)C(=O)N[C@@H](CC(C)C)C(=O)N[C@@H](CC(C)C)C(N)=O)C(C)C)C2=O)C1=O)C(=O)N[C@@H](CC(C)C)C(=O)N[C@@H](CCCNC(=N)N)C(=O)N[C@H](C(=O)N[C@@H](CCCNC(=N)N)C(=O)N[C@@H](CC(C)C)C(=O)N[C@@H](C)C(=O)N[C@@H](CO)C(=O)N[C@@H](Cc1c[nH]cn1)C(=O)N[C@@H](CC(C)C)C(=O)N[C@@H](CCCNC(=N)N)C(=O)N[C@@H](CCCCN)C(=O)N[C@@H](CC(C)C)C(=O)N[C@@H](CCCNC(=N)N)C(=O)N[C@@H](CCCCN)C(=O)N[C@@H](CCCNC(=N)N)C(=O)N[C@@H](CC(C)C)C(=O)N[C@@H](CC(C)C)C(N)=O)C(C)C` (stereo partly shown) [COG493, WKK-C-LRVRLASHLRKLRKRLL (SEQ ID NO: 90) <BMOE> WKK-C-LRVRLASHLRKLRKRLL (SEQ ID NO: 90)]: the “cytotoxicity to U87MG cells” value in series [7] is “cytotoxic”. Further, the “cytotoxicity to MDA-MB-231 cells, dimer versus monomer COG435” value in series [8] is recorded as “significantly more cytotoxic”. The compound further displayed an MTD at 24 h in series [4] of 20 mg/kg.

As to “LRVRLAS(Aib)LRKLR(K-Ac)RLL (SEQ ID NO: 35) (LRVRLAS[Aib]LRKLRK(Ac)RLL) [COG345]”, the “anti-inflammatory activity relative to COG133 in NO release assays” value in series [6] is recorded as “improved anti-inflammatory activity”.
